How the values were obtained:
Assay in all cases: Test E pre-/postemergence greenhouse test, plant response rating 0-100
Type in all cases: in vivo
[1] = test system: morningglory (Ipomoea coccinea); details: Preemergence, scale 0 to 100
[2] = test system: johnsongrass (Sorghum halepense); details: Preemergence, scale 0 to 100
[3] = test system: yellow nutsedge (Cyperus esculentus); details: Preemergence, scale 0 to 100
[4] = test system: smartweed (ladysthumb smartweed, Polygonum persicaria); details: scale 0 to 100; for Smartweed plant response rating: Preemergence
[5] = test system: giant foxtail (Setaria faberii); details: Preemergence, scale 0 to 100
[6] = test system: large (Lg) crabgrass (Digitaria sanguinalis); details: Preemergence, scale 0 to 100
[7] = test system: field bindweed (Convolvulus arvensis); details: scale 0 to 100; for Plant response rating, Field Bindweed: Postemergence; for Field Bindweed plant response rating: Preemergence
Method in brief: (§1)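 Each species was tested both preemergence, with chemicals sprayed onto freshly planted silt loam, and postemergence, on plants 2 to 18 cm tall in a peat-based medium; the vehicle was a non-phytotoxic solvent mixture with surfactant. After 14 to 21 days in the greenhouse, growth was visually compared with controls and scored 0–100.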

[8] = test system: smartweed (ladysthumb smartweed, Polygonum persicaria); details: Postemergence, 250 g ai/ha; scale 0 to 100
[9] = test system: fall panicum (Panicum dichotomiflorum); details: scale 0 to 100; for Plant response rating, Panicum, Fall: Postemergence; for Panicum, Fall plant response rating: Preemergence
Method in brief: as §1

[10] = test system: surinam grass (Brachiaria decumbens); details: Preemergence, scale 0 to 100
Method in brief: as §1

[11] = test system: ragweed (common ragweed, Ambrosia elatior); details: Preemergence, scale 0 to 100
Method in brief: as §1

kochia (Kochia scoparia) = details: Preemergence, scale 0 to 100
Method in brief: as §1

[12] = test system: velvetleaf (Abutilon theophrasti); details: Preemergence, scale 0 to 100
Method in brief: as §1

[13] = test system: goosegrass (Eleusine indica); details: Preemergence, scale 0 to 100
[14] = test system: green foxtail (Setaria viridis); details: Preemergence, scale 0 to 100

O=C(c1ccccc1)c1cn(S(=O)(=O)CC(F)(F)F)nc1-c1cc(Cl)cc(Cl)c1 [Compound 3]
15: Foxtail, Giant plant response rating ([5]; 250 g ai/ha)
80: Velvetleaf plant response rating ([12]; 500 g ai/ha)
90: Plant response rating, Smartweed ([4]; Postemergence, 500 g ai/ha)
100: Ragweed plant response rating ([11]; 250 g ai/ha)
35: Johnsongrass plant response rating ([2]; 250 g ai/ha) | Johnsongrass plant response rating ([2]; 500 g ai/ha) | Nutsedge, Yellow plant response rating ([3]; 125 g ai/ha) | Foxtail, Giant plant response rating ([5]; 500 g ai/ha) | Velvetleaf plant response rating ([12]; 125 g ai/ha) | Goosegrass plant response rating ([13]; 250 g ai/ha) | Goosegrass plant response rating ([13]; 500 g ai/ha)
20: Kochia plant response rating (kochia (Kochia scoparia); 62 g ai/ha) | Velvetleaf plant response rating ([12]; 31 g ai/ha) | Velvetleaf plant response rating ([12]; 62 g ai/ha)
0: Morningglory plant response rating ([1]; 31 g ai/ha) | Morningglory plant response rating ([1]; 62 g ai/ha) | Morningglory plant response rating ([1]; 125 g ai/ha) | Morningglory plant response rating ([1]; 250 g ai/ha) | Morningglory plant response rating ([1]; 500 g ai/ha) | Johnsongrass plant response rating ([2]; 31 g ai/ha) | Johnsongrass plant response rating ([2]; 62 g ai/ha) | Johnsongrass plant response rating ([2]; 125 g ai/ha) | Smartweed plant response rating ([4]; 31 g ai/ha) | Smartweed plant response rating ([4]; 62 g ai/ha) | Smartweed plant response rating ([4]; 125 g ai/ha) | Smartweed plant response rating ([4]; 250 g ai/ha) | Smartweed plant response rating ([4]; 500 g ai/ha) | Foxtail, Giant plant response rating ([5]; 31 g ai/ha) | Foxtail, Giant plant response rating ([5]; 62 g ai/ha) | Foxtail, Giant plant response rating ([5]; 125 g ai/ha) | Crabgrass, Large plant response rating ([6]; 31 g ai/ha) | Crabgrass, Large plant response rating ([6]; 62 g ai/ha) | Crabgrass, Large plant response rating ([6]; 125 g ai/ha) | Crabgrass, Large plant response rating ([6]; 250 g ai/ha) | Crabgrass, Large plant response rating ([6]; 500 g ai/ha) | Plant response rating, Field Bindweed ([7]; 31 g ai/ha) | Plant response rating, Field Bindweed ([7]; 62 g ai/ha) | Plant response rating, Field Bindweed ([7]; 125 g ai/ha) | Plant response rating, Field Bindweed ([7]; 250 g ai/ha) | Plant response rating, Field Bindweed ([7]; 500 g ai/ha) | Field Bindweed plant response rating ([7]; 31 g ai/ha) | Field Bindweed plant response rating ([7]; 62 g ai/ha) | Field Bindweed plant response rating ([7]; 125 g ai/ha) | Field Bindweed plant response rating ([7]; 250 g ai/ha) | Plant response rating, Panicum, Fall ([9]; 31 g ai/ha) | Plant response rating, Panicum, Fall ([9]; 62 g ai/ha) | Plant response rating, Panicum, Fall ([9]; 125 g ai/ha) | Plant response rating, Panicum, Fall ([9]; 250 g ai/ha) | Plant response rating, Panicum, Fall ([9]; 500 g ai/ha) | Panicum, Fall plant response rating ([9]; 31 g ai/ha) | Panicum, Fall plant response rating ([9]; 62 g ai/ha) | Panicum, Fall plant response rating ([9]; 125 g ai/ha) | Panicum, Fall plant response rating ([9]; 250 g ai/ha) | Panicum, Fall plant response rating ([9]; 500 g ai/ha) | Surinam Grass plant response rating ([10]; 31 g ai/ha) | Surinam Grass plant response rating ([10]; 62 g ai/ha) | Surinam Grass plant response rating ([10]; 125 g ai/ha) | Surinam Grass plant response rating ([10]; 250 g ai/ha) | Surinam Grass plant response rating ([10]; 500 g ai/ha) | Ragweed plant response rating ([11]; 31 g ai/ha) | Ragweed plant response rating ([11]; 62 g ai/ha) | Ragweed plant response rating ([11]; 125 g ai/ha) | Kochia plant response rating (kochia (Kochia scoparia); 31 g ai/ha) | Goosegrass plant response rating ([13]; 31 g ai/ha) | Goosegrass plant response rating ([13]; 62 g ai/ha) | Goosegrass plant response rating ([13]; 125 g ai/ha) | Foxtail, Green plant response rating ([14]; 31 g ai/ha) | Foxtail, Green plant response rating ([14]; 62 g ai/ha) | Foxtail, Green plant response rating ([14]; 125 g ai/ha) | Foxtail, Green plant response rating ([14]; 250 g ai/ha) | Foxtail, Green plant response rating ([14]; 500 g ai/ha)
70: Kochia plant response rating (kochia (Kochia scoparia); 500 g ai/ha)
75: Nutsedge, Yellow plant response rating ([3]; 500 g ai/ha)
95: Ragweed plant response rating ([11]; 500 g ai/ha)
50: Nutsedge, Yellow plant response rating ([3]; 62 g ai/ha) | Kochia plant response rating (kochia (Kochia scoparia); 250 g ai/ha)
25: Kochia plant response rating (kochia (Kochia scoparia); 125 g ai/ha)
40: Velvetleaf plant response rating ([12]; 250 g ai/ha)
65: Field Bindweed plant response rating ([7]; 500 g ai/ha) | Plant response rating, Smartweed [8]
